# From PubChem BioAssay AID248 (DTP/NCI, 2004)
# Several values for one entry are separate records, joined by “and”; a condition that tells them apart may be missing. Equal entries are not always repeated. Inconclusive results and toxic doses are left out.
# Tested on: L1210 leukemia ip in BDF1 mice, survival T/C
# Test: NCI In Vivo Anticancer Drug Screen. Data for tumor model L1210 Leukemia (intraperitoneal) in B6D2F1 (BDF1) mice
# Details: endpoint: mean survival time, vehicle: saline, higher = longer survival
# Procedure, shortened: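 Transplantable tumor model; survival measured in treated vs vehicle control mice. Value = treated/control.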
structure (smiles),measurement,setting,value
CSc1ncnc2c1ncn2C1OC(CO)C(O)C1O (stereo not drawn),T/C,"dose: 0.5 mg/kg/injection, schedule: Q#A X Z (ip)",120 % of control
same,T/C,"dose: 0.82 mg/kg/injection, schedule: Q07DX003 (ip)",107 % of control
same,T/C,"dose: 1.0 mg/kg/injection, schedule: Q01DX Z (ip)",113 % of control
same,T/C,"dose: 1.25 mg/kg/injection, schedule: Q06HX068 (ip)",123 % of control
same,T/C,"dose: 2.0 mg/kg/injection, schedule: Q01DX010 (ip)",109 % of control and 112 % of control
same,T/C,"dose: 2.0 mg/kg/injection, schedule: Q01DX Z (ip)",123 % of control
same,T/C,"dose: 3.25 mg/kg/injection, schedule: Q07DX003 (ip)",115 % of control
same,T/C,"dose: 4.0 mg/kg/injection, schedule: Q01DX006 (iv)",109 % of control
same,T/C,"dose: 4.0 mg/kg/injection, schedule: Q01DX010 (ip)",117 % of control
same,T/C,"dose: 4.0 mg/kg/injection, schedule: Q01DX Z (im)",117 % of control
same,T/C,"dose: 4.0 mg/kg/injection, schedule: Q01DX Z (sc)",102 % of control
same,T/C,"dose: 5.0 mg/kg/injection, schedule: Q01DX010 (ip)",113 % of control and 122 % of control
same,T/C,"dose: 5.0 mg/kg/injection, schedule: Q01DX017 (ip)",105 % of control
same,T/C,"dose: 5.0 mg/kg/injection, schedule: Q#A X034 (ip)",118 % of control
same,T/C,"dose: 6.5 mg/kg/injection, schedule: Q07DX003 (ip)",115 % of control and 121 % of control
same,T/C,"dose: 6.65 mg/kg/injection, schedule: Q#A X Z (ip)",151 % of control
same,T/C,"dose: 8.0 mg/kg/injection, schedule: Q01DX006 (iv)",105 % of control
same,T/C,"dose: 8.0 mg/kg/injection, schedule: Q01DX010 (ip)",118 % of control and 124 % of control
same,T/C,"dose: 8.0 mg/kg/injection, schedule: Q01DX Z (im)",115 % of control
same,T/C,"dose: 8.0 mg/kg/injection, schedule: Q01DX Z (sc)",113 % of control
same,T/C,"dose: 10.0 mg/kg/injection, schedule: Q12HX010 (ip)",119 % of control
same,T/C,"dose: 10.0 mg/kg/injection, schedule: Q## X032 (ip)",119 % of control
same,T/C,"dose: 12.5 mg/kg/injection, schedule: Q01DX010 (ip)",150 % of control
same,T/C,"dose: 13.0 mg/kg/injection, schedule: Q## X004 (ip)",114 % of control
same,T/C,"dose: 15.0 mg/kg/injection, schedule: Q01DX010 (ip)",152 % of control
same,T/C,"dose: 15.0 mg/kg/injection, schedule: Q01DX Z (oral)",119 % of control
same,T/C,"dose: 16.0 mg/kg/injection, schedule: Q01DX006 (iv)",112 % of control
same,T/C,"dose: 16.0 mg/kg/injection, schedule: Q01DX Z (sc)",115 % of control
same,T/C,"dose: 18.0 mg/kg/injection, schedule: Q01DX001 (ip)",104 % of control and 106 % of control
same,T/C,"dose: 20.0 mg/kg/injection, schedule: Q01DX015 (ip)",153 % of control
same,T/C,"dose: 20.0 mg/kg/injection, schedule: Q12HX006 (ip)",110 % of control
same,T/C,"dose: 20.0 mg/kg/injection, schedule: Q12HX010 (ip)",120 % of control
same,T/C,"dose: 20.0 mg/kg/injection, schedule: Q## X004 (ip)",121 % of control
same,T/C,"dose: 20.0 mg/kg/injection, schedule: Q#A X034 (ip)",103 % of control
same,T/C,"dose: 21.0 mg/kg/injection, schedule: Q## X015 (ip)",152 % of control
same,T/C,"dose: 22.0 mg/kg/injection, schedule: Q## X032 (ip)",124 % of control
same,T/C,"dose: 23.0 mg/kg/injection, schedule: Q03DX006 (ip)",113 % of control
same,T/C,"dose: 25.0 mg/kg/injection, schedule: Q01DX001 (ip)",122 % of control and 124 % of control
same,T/C,"dose: 25.0 mg/kg/injection, schedule: Q01DX005 (ip)",150 % of control
same,T/C,"dose: 26.0 mg/kg/injection, schedule: Q01DX001 (ip)",103 % of control
same,T/C,"dose: 27.0 mg/kg/injection, schedule: Q01DX001 (ip)",110 % of control and 120 % of control
same,T/C,"dose: 30.0 mg/kg/injection, schedule: Q01DX003 (ip)",151 % of control
same,T/C,"dose: 30.0 mg/kg/injection, schedule: Q01DX015 (ip)",153 % of control
same,T/C,"dose: 30.0 mg/kg/injection, schedule: Q## X004 (ip)",121 % of control
same,T/C,"dose: 31.0 mg/kg/injection, schedule: Q## X015 (ip)",152 % of control
same,T/C,"dose: 32.0 mg/kg/injection, schedule: Q01DX006 (iv)",115 % of control and 117 % of control
same,T/C,"dose: 32.0 mg/kg/injection, schedule: Q01DX Z (im)",153 % of control
same,T/C,"dose: 32.0 mg/kg/injection, schedule: Q01DX Z (ip)",102 % of control
same,T/C,"dose: 32.0 mg/kg/injection, schedule: Q01DX Z (sc)",151 % of control
same,T/C,"dose: 32.0 mg/kg/injection, schedule: Q## X015 (ip)",103 % of control and 115 % of control
same,T/C,"dose: 32.0 mg/kg/injection, schedule: Q## X032 (ip)",122 % of control
same,T/C,"dose: 38.0 mg/kg/injection, schedule: Q01DX015 (ip)",100 % of control
same,T/C,"dose: 39.5 mg/kg/injection, schedule: Q01DX015 (ip)",123 % of control
same,T/C,"dose: 39.5 mg/kg/injection, schedule: Q## X015 (ip)",123 % of control
same,T/C,"dose: 40.0 mg/kg/injection, schedule: Q01DX001 (ip)",107 % of control and 110 % of control and 112 % of control
same,T/C,"dose: 40.0 mg/kg/injection, schedule: Q01DX017 (ip)",108 % of control
same,T/C,"dose: 40.0 mg/kg/injection, schedule: Q12HX006 (ip)",120 % of control
same,T/C,"dose: 45.0 mg/kg/injection, schedule: Q01DX015 (ip)",102 % of control and 110 % of control
same,T/C,"dose: 45.0 mg/kg/injection, schedule: Q03DX006 (ip)",120 % of control
same,T/C,"dose: 47.0 mg/kg/injection, schedule: Q## X015 (ip)",98 % of control and 103 % of control
same,T/C,"dose: 50.0 mg/kg/injection, schedule: Q01DX001 (ip)",113 % of control and 122 % of control
same,T/C,"dose: 50.0 mg/kg/injection, schedule: Q01DX009 (ip)",102 % of control
same,T/C,"dose: 54.0 mg/kg/injection, schedule: Q01DX001 (ip)",120 % of control
same,T/C,"dose: 60.0 mg/kg/injection, schedule: Q01DX001 (ip)",115 % of control
same,T/C,"dose: 60.0 mg/kg/injection, schedule: Q01DX Z (oral)",119 % of control
same,T/C,"dose: 61.0 mg/kg/injection, schedule: Q01DX001 (ip)",116 % of control
same,T/C,"dose: 64.0 mg/kg/injection, schedule: Q01DX Z (im)",109 % of control
same,T/C,"dose: 64.0 mg/kg/injection, schedule: Q01DX Z (sc)",102 % of control
same,T/C,"dose: 80.0 mg/kg/injection, schedule: Q12HX010 (ip)",115 % of control
same,T/C,"dose: 90.0 mg/kg/injection, schedule: Q01DX001 (ip)",121 % of control
same,T/C,"dose: 90.0 mg/kg/injection, schedule: Q03DX006 (ip)",119 % of control
same,T/C,"dose: 91.0 mg/kg/injection, schedule: Q01DX001 (ip)",113 % of control
same,T/C,"dose: 100.0 mg/kg/injection, schedule: Q01DX001 (ip)",111 % of control
same,T/C,"dose: 100.0 mg/kg/injection, schedule: Q01DX003 (ip)",117 % of control
same,T/C,"dose: 100.0 mg/kg/injection, schedule: Q02DX008 (ip)",95 % of control
same,T/C,"dose: 105.0 mg/kg/injection, schedule: Q07DX003 (ip)",151 % of control and 152 % of control
same,T/C,"dose: 121.0 mg/kg/injection, schedule: Q01DX001 (ip)",119 % of control
same,T/C,"dose: 138.0 mg/kg/injection, schedule: Q01DX001 (ip)",152 % of control
same,T/C,"dose: 160.0 mg/kg/injection, schedule: Q12HX006 (ip)",113 % of control
same,T/C,"dose: 180.0 mg/kg/injection, schedule: Q03DX006 (ip)",105 % of control
same,T/C,"dose: 200.0 mg/kg/injection, schedule: Q01DX001 (ip)",103 % of control
same,T/C,"dose: 256.0 mg/kg/injection, schedule: Q01DX006 (iv)",94 % of control
same,T/C,"dose: 400.0 mg/kg/injection, schedule: Q01DX001 (ip)",100 % of control
